This is an account of results in US20260097047A1, “Small molecule inhibitors of the ribosome biogenesis factor NVL2” (Board of Regents, The University of Texas System, priority 2023, published 2026).

Several values for one entry are separate records, joined by “and”; a condition that tells them apart may be missing. Equal entries are not always repeated.

A short description of data set [1]: Pharmacokinetic studies in CD-1 female mice, intraperitoneal. In kind it is in vivo, mouse. How it is done:
Plasma exposure was dose-dependent up to 35 mg/kg (IP injection) reaching a maximum concentration at 17.86 μM. These levels exceed the anti-proliferative IC99 of MM927 in cells expressing either human or mouse NVL. In a subsequent pharmacodynamic (PD) study, we asked if we could assess on-target NVL inhibition via a subsequent p53 and/or p21 induction in tumor xenografts in mice treated with MM927. We implanted HCT116 NVL^WT and NVL^R403W cells subcutaneously on either flank of the mice and evaluated the levels of p53 and p21 in either tumor at various time points after IP administration of 35 mg/kg of MM927.
Pharmacokinetic studies were performed by dosing 6-7 week old CD-1 female mice with analog MM927 formulated as 10% DMSO/10% Kolliphor EL/10% Solutal/70% D5W via the intraperitoneal route. Animals were euthanized in groups of three, blood was obtained by cheek bleeds at each time point (0, 10, 30, 90, 180, 360, 960 and 1440 minutes post dose) using the anticoagulant ACD (acidified citrate dextrose) and plasma isolated by centrifugation. For the dose escalation study, mice were dosed with 20 mg/kg, 35 mg/kg, or 60 mg/kg and blood was collected at 10, 180, and 720 minutes post dose. […] The resulting supernatants were evaluated by LC-MS/MS using a Sciex (Framingham, MA) 4500 Triple Quad coupled to a Shimadzu (Columbia, MD) Prominence LC. Briefly, MM927 was detected in multiple reaction monitoring mode (MRM) using the (m+1) transition 488.059/176.1. […] The concentrations of drug in each time-point sample were quantified using Analyst software (Sciex). […] The limit of quantitation (LOQ) was defined as the lowest concentration at which back calculation yielded a concentration within 20% of theoretical and which was above the LOD. Cmax and AUC values were calculated using the noncompartmental analysis tool of Phoenix WinNonLin (Certara/Pharsight, Sunnyvale, CA).

For the next data set, the target named is T1, mouse NVL (Mus musculus, UniProt Q9DBY8).
T1 construct: expressed in transfected cells; host or cells: HCT116 NVL^AID/AID cells (human cells, viral infection)
T1 sequence (Q9DBY8 whole entry): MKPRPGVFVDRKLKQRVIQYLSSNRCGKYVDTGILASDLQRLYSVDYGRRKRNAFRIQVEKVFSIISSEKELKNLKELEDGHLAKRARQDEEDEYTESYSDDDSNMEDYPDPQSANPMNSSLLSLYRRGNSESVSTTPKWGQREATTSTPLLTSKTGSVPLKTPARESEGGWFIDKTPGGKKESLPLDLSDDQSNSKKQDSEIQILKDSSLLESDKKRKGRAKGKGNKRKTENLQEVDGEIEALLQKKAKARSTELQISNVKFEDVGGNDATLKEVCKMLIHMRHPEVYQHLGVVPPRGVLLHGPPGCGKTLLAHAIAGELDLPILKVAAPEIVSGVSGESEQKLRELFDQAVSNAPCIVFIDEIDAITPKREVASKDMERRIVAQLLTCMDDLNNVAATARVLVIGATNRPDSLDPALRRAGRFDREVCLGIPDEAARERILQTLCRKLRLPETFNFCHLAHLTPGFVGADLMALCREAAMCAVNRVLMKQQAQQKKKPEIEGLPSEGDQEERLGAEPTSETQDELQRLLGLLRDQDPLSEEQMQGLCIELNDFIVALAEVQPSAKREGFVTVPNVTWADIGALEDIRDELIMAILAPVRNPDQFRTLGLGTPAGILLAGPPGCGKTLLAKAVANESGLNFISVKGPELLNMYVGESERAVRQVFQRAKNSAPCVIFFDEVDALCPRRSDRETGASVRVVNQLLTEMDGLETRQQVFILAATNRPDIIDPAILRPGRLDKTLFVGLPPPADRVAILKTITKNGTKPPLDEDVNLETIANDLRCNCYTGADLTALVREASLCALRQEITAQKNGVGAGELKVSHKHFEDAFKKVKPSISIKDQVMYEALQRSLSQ
Put plainly: Viability of NVL^AID/AID cells relying on ectopic mouse NVL (Ph-IAA). The data set is classed as cell-based. The conditions noted are these: endogenous NVL degraded with Ph-IAA. The text has this: Next, we investigated whether inhibitors of NVL could inhibit the growth of cell line derived xenografts tumors in mice, and whether systemic inhibition of NVL leads to specific toxicities. […] To test the potency of MM927 against mouse NVL within the same cell type, we ectopically expressed either human or mouse NVL in NVL^AID/AID cells. Treatment with Ph-IAA degrades the endogenous protein so that the cells must rely solely on ectopically expressed NVL. In the mock infected cells, degrading NVL^AID/AID by the addition of Ph-IAA reduced cell viability as expected, and the viability was completely rescued by expression of either ectopic mouse or human NVL.

The test system of a further data set is HCT116 NVL^R403W cells. Put plainly: Cell viability counter-screen in compound-resistant HCT116 NVL^R403W cells. In kind it is cell-based, human. The conditions noted are these: Homo sapiens, HCT-116; NVL^R403W knock-in. How it is done:
Design and synthesis of benzothiazepine-based NVL inhibitors. […] Analogs were evaluated against the colorectal cancer cell line HCT116, and counter-screened against a compound resistant NVL2^R403W clone. Cytotoxicity in wild-type HCT116 was determined. […] Initial SAR focused on exploring the replacement of the furan ring of initial dibenzothiazepinone hit MM017. We first explored a wide variety of mono- and di-substituted phenyl rings, including a broad spectrum of functionality (F, Cl, alkyl, alkoxy, fluoroalkoxy, CN, formamide, S(O) Me, carboxyl, . . . ). […]
HCT116 cells were transfected with TransIT-LT (Mirus #MIR2304) according to manufacturer's protocol with a guide RNA (either mock or NVL targeting) in the px330 vector (Addgene, #42230), and 10 nM single stranded deoxyoligonucleotide encoding a specific NVL mutation (see below for specific sequences). […] The resulting cells were evaluated by cresyl violet staining or collected and the relevant NVL mutations were analyzed by either amplicon or sanger sequencing.
Cell viability assay: In 96-well assay plates (Corning #2903), 2,000 cells were plated per well in 100 μL of medium and allowed to adhere overnight. […] Luminescence (CellTiter-Glo) was recorded using a Synergy 2 microplate reader (BioTek). […]
A general note: A counterscreen serves to expose hits that act by an unwanted route or on another target.

`CC#CCN1C(=O)c2ccc(F)cc2Sc2cc(NC(=O)c3ccc4oc(=O)n(C)c4c3)ccc21` [MM927, N-(10-(But-2-yn-1-yl)-3-fluoro-11-oxo-10,11-dihydrodibenzo[b,f][1,4]thiazepin-7-yl)-3-methyl-2-oxo-2,3-dihydrobenzo[d]oxazole-5-carboxamide] registered a maximum plasma concentration in data set [1] (35 mg/kg IP injection, dose escalation) of 17.86 µM. For the same molecule, the half-life – broadly, the time in which the quantity being followed falls by half – in data set [1] (female, CD-1, mouse, plasma, 10 mg/kg intraperitoneal (IP) injection, read-out: elimination half-life) is 1.69 h. For the same molecule, the Cmax (commonly the peak of the concentration-time curve) in data set [1] (female, CD-1, mouse, plasma, 10 mg/kg intraperitoneal (IP) injection, read-out: peak plasma levels (Cmax)) was 2510 ng/mL and 5.15 µM. Moreover, the IC50 (commonly the point on the concentration scale where inhibition reaches its midpoint) at mouse NVL was 0.207 µM.
Consider `COCCN1C(=O)c2ccccc2Sc2cc(NC(=O)c3ccoc3)ccc21` [MM017], for which the 50% inhibitory concentration (IC50) in the data set on HCT116 NVL^R403W cells is above 50 µM.
